Assay results as given in the NIST ThermoML archive (doi:10.1021/je0501078).
± gives the expanded uncertainty stated by the source.

Assay: molar heat capacity at saturation pressure

O=C1CCCCC1C1(O)CCCCC1 (stereo unspecified) [1'-hydroxy-[1,1'-bicyclohexyl]-2-one]
Settings | molar heat capacity [J/K/mol]
5.16 K, Crystal | 0.533 ± 0.046
5.41 K, Crystal | 0.6159 ± 0.049
5.68 K, Crystal | 0.7141 ± 0.051
5.97 K, Crystal | 0.8182 ± 0.054
6.29 K, Crystal | 0.9686 ± 0.057
6.62 K, Crystal | 1.137 ± 0.062
6.94 K, Crystal | 1.337 ± 0.067
7.27 K, Crystal | 1.564 ± 0.073
7.69 K, Crystal | 1.849 ± 0.08
8.09 K, Crystal | 2.166 ± 0.087
8.51 K, Crystal | 2.524 ± 0.096
8.97 K, Crystal | 2.903 ± 0.1
9.4 K, Crystal | 3.307 ± 0.11
9.86 K, Crystal | 3.764 ± 0.12
10.32 K, Crystal | 4.247 ± 0.14
10.8 K, Crystal | 4.745 ± 0.14
11.34 K, Crystal | 5.386 ± 0.16
11.91 K, Crystal | 6.078 ± 0.17
12.5 K, Crystal | 6.783 ± 0.18
13.09 K, Crystal | 7.518 ± 0.2
13.65 K, Crystal | 8.27 ± 0.21
14.26 K, Crystal | 9.088 ± 0.22
14.87 K, Crystal | 9.894 ± 0.24
15.47 K, Crystal | 10.71 ± 0.25
16.12 K, Crystal | 11.66 ± 0.27
16.79 K, Crystal | 12.66 ± 0.28
17.47 K, Crystal | 13.66 ± 0.29
18.17 K, Crystal | 14.72 ± 0.31
18.86 K, Crystal | 15.8 ± 0.32
19.61 K, Crystal | 16.87 ± 0.33
20.52 K, Crystal | 18.24 ± 0.34
21.52 K, Crystal | 19.81 ± 0.36
22.54 K, Crystal | 21.36 ± 0.37
23.56 K, Crystal | 22.97 ± 0.37
24.68 K, Crystal | 24.67 ± 0.38
25.89 K, Crystal | 26.58 ± 0.39
27.12 K, Crystal | 28.34 ± 0.38
28.37 K, Crystal | 30.15 ± 0.38
29.78 K, Crystal | 32.21 ± 0.37
31.31 K, Crystal | 34.26 ± 0.34
32.81 K, Crystal | 36.25 ± 0.35
34.25 K, Crystal | 38.29 ± 0.37
35.69 K, Crystal | 40.02 ± 0.37
37.25 K, Crystal | 42.05 ± 0.39
38.95 K, Crystal | 44.28 ± 0.41
40.79 K, Crystal | 46.36 ± 0.42
42.67 K, Crystal | 48.72 ± 0.43
44.41 K, Crystal | 50.59 ± 0.45
46.25 K, Crystal | 52.77 ± 0.47
48.19 K, Crystal | 54.67 ± 0.47
50.08 K, Crystal | 56.63 ± 0.49
51.93 K, Crystal | 58.46 ± 0.5
53.83 K, Crystal | 60.66 ± 0.52
55.82 K, Crystal | 62.66 ± 0.53
57.81 K, Crystal | 64.39 ± 0.54
59.76 K, Crystal | 66.21 ± 0.56
61.73 K, Crystal | 68.03 ± 0.56
63.72 K, Crystal | 69.96 ± 0.58
65.71 K, Crystal | 71.5 ± 0.59
67.67 K, Crystal | 73.51 ± 0.61
69.76 K, Crystal | 75.35 ± 0.61
72.08 K, Crystal | 77.34 ± 0.63
74.55 K, Crystal | 79.53 ± 0.65
76.99 K, Crystal | 81.52 ± 0.66
79.43 K, Crystal | 83.56 ± 0.67
81.9 K, Crystal | 85.64 ± 0.67
84.37 K, Crystal | 87.8 ± 0.67
86.86 K, Crystal | 89.8 ± 0.75
89.34 K, Crystal | 92.04 ± 0.75
91.79 K, Crystal | 93.87 ± 0.92
94.27 K, Crystal | 96.03 ± 0.92
96.74 K, Crystal | 97.94 ± 0.92
99.23 K, Crystal | 100.3 ± 0.92
99.86 K, Crystal | 100.6 ± 0.92
101.72 K, Crystal | 102.1 ± 0.92
101.89 K, Crystal | 102.2 ± 0.92
103.96 K, Crystal | 103.9 ± 0.92
104.22 K, Crystal | 104.1 ± 1
106 K, Crystal | 105.5 ± 1
108.09 K, Crystal | 107.2 ± 1
110.22 K, Crystal | 108.8 ± 1
112.32 K, Crystal | 110.3 ± 1
114.47 K, Crystal | 112.2 ± 1
116.67 K, Crystal | 113.7 ± 1
118.84 K, Crystal | 115.6 ± 1
120.97 K, Crystal | 117 ± 1
123.07 K, Crystal | 118.7 ± 1
125.14 K, Crystal | 120.4 ± 1
127.19 K, Crystal | 122.1 ± 1
129.21 K, Crystal | 123.6 ± 1.1
131.21 K, Crystal | 125.2 ± 1.1
133.17 K, Crystal | 126.7 ± 1.1
135.12 K, Crystal | 128.2 ± 1.1
137.05 K, Crystal | 129.6 ± 1.1
138.96 K, Crystal | 131.3 ± 1.1
141 K, Crystal | 132.8 ± 1.1
143.17 K, Crystal | 134.4 ± 1.1
145.31 K, Crystal | 136.2 ± 1.1
147.42 K, Crystal | 137.7 ± 1.1
149.52 K, Crystal | 139.4 ± 1.1
149.69 K, Crystal | 139.5 ± 1.1
151.77 K, Crystal | 141.3 ± 1.1
153.83 K, Crystal | 142.8 ± 1.2
155.94 K, Crystal | 144.7 ± 1.2
158.11 K, Crystal | 146.2 ± 1.2
160.26 K, Crystal | 148.1 ± 1.2
162.4 K, Crystal | 149.6 ± 1.2
164.58 K, Crystal | 151.5 ± 1.2
166.82 K, Crystal | 153.1 ± 1.2
169.05 K, Crystal | 154.8 ± 1.2
171.25 K, Crystal | 156.7 ± 1.2
173.43 K, Crystal | 158.6 ± 1.2
175.59 K, Crystal | 160.1 ± 1.2
177.74 K, Crystal | 162 ± 1.2
179.87 K, Crystal | 163.8 ± 1.2
181.98 K, Crystal | 165.4 ± 1.2
184.22 K, Crystal | 167.4 ± 1.2
186.58 K, Crystal | 169.1 ± 1.2
188.92 K, Crystal | 171.2 ± 1.2
191.24 K, Crystal | 172.9 ± 1.2
193.62 K, Crystal | 174.9 ± 1.2
196.06 K, Crystal | 176.6 ± 1.2
198.49 K, Crystal | 179 ± 1.3
200.89 K, Crystal | 180.8 ± 1.3
203.28 K, Crystal | 182.7 ± 1.3
205.65 K, Crystal | 184.8 ± 1.3
208.08 K, Crystal | 186.7 ± 1.3
210.57 K, Crystal | 188.6 ± 1.3
213.04 K, Crystal | 191 ± 1.3
215.63 K, Crystal | 192.9 ± 1.3
218.36 K, Crystal | 195.1 ± 1.3
220.54 K, Crystal | 197.1 ± 1.4
223.28 K, Crystal | 199.4 ± 1.4
226 K, Crystal | 201.5 ± 1.4
228.71 K, Crystal | 203.8 ± 1.4
231.37 K, Crystal | 206.2 ± 1.4
234.03 K, Crystal | 209.2 ± 1.4
236.67 K, Crystal | 210.8 ± 1.4
239.45 K, Crystal | 214 ± 1.4
242.37 K, Crystal | 216.3 ± 1.5
245.3 K, Crystal | 218.9 ± 1.5
248.2 K, Crystal | 221.7 ± 1.5
251.09 K, Crystal | 224 ± 1.5
253.97 K, Crystal | 227.2 ± 1.5
256.81 K, Crystal | 229.6 ± 1.5
259.61 K, Crystal | 232.7 ± 1.6
262.37 K, Crystal | 235.2 ± 1.6
265.1 K, Crystal | 238.8 ± 1.6
267.8 K, Crystal | 241.5 ± 1.6
270.46 K, Crystal | 244.1 ± 1.6
273.22 K, Crystal | 247.9 ± 1.6
274.83 K, Crystal | 249.2 ± 1.6
276.1 K, Crystal | 250.8 ± 1.7
277.41 K, Crystal | 252.4 ± 1.7
278.95 K, Crystal | 254.3 ± 1.7
279.97 K, Crystal | 255.8 ± 1.7
281.77 K, Crystal | 257.8 ± 1.7
282.51 K, Crystal | 258.4 ± 1.7
284.57 K, Crystal | 261.4 ± 1.7
285.02 K, Crystal | 262 ± 1.7
287.35 K, Crystal | 264.2 ± 1.7
287.51 K, Crystal | 264.9 ± 1.7
289.97 K, Crystal | 267.6 ± 1.7
290.11 K, Crystal | 268.6 ± 1.7
292.4 K, Crystal | 271.5 ± 1.7
292.83 K, Crystal | 271.4 ± 1.7
294.18 K, Crystal | 273.5 ± 1.7
295.66 K, Crystal | 275.3 ± 1.7
308.34 K, Liquid | 351 ± 2.1
310.04 K, Liquid | 351.5 ± 2.1
311.73 K, Liquid | 353.4 ± 2.1
